Measurements as given in patent US5911993A, “Homeopathic antidiabetic treatment” (priority 1997, dated 1999).

Key:
[1] = tested on: polychromatic erythrocytes; experiment: Mouse marrow micronucleus experiment; assay type: in vivo, Kumming species mouse
Method: 2 Mouse marrow micronucleus experiment:
Adopting first class qualified Kumming species mouse (provided by animal house of CMA) whose weight are 24~30 g. Making 3 DAS dose groups as 10, 600, 1200 mg/kg plus a positive (cyclophosphamide 30 mg/kg, inject to stomach 2 times) and a negative reference group, 10 mice for each group, half male and half female. Filling the gastric of each mouse two days continuously, and executing the mouse 6 hours after last filling, taking sternum marrow to make thin section as routine, coloring to red. Counting 1000 polychromatic erythrocytes for each mouse, observing polychromatic erythrocytes which contains micronucleus and calculating the rate of micronucleus cell.

sperm = experiment: Mouse sperm terata experiment; assay type: in vivo, Kumming species mouse
Method: 3 Mouse sperm terata experiment:
Adopting first class qualified Kumming species mouse (provided by animal house of CMA) whose weight are 27~36 g. Making 3 DAS dose groups as 10, 600, 1200 mg/kg plus a positive (cyclophosphamide 30 mg/kg, inject to stomach 5 days) and a negative reference group. Filling the gastric of each mouse for each of 5 days continuously, and executing the mouse at 35th day after first filling, taking epididymis of both sides, coloring, observing 1000 sperms for each mouse and calculating the ratio of sperm mutation.

[2] = tested on: insulin dependent type diabetes; experiment: clinical experiment on human, insulin dependent type diabetes; assay type: in vivo, humans; settings: Example 2, 20 units insulin injected
Method: (§1) Clinical experiments were also conducted on humans from various provinces of China. Five examples of these clinical experiments are as follows (in each experiment each tablet had 20 mg of non-concentrated powder of Echevaria glauca, Sinocrassula berger, Crassulaceae according to the invention): […]

diabetes models = experiment: blood sugar in mice diabetes models made by injecting Tetraoxymidine; assay type: in vivo, Kumming species mice; settings: for Blood sugar value, After Use / Reducer rate (-.increment.X%) / Blood sugar value, Before Use: 11 female mice, 0.2 ml/mouse/day; for Blood sugar value, After Use: 6 days after filling the gastric, 0.5 mg/ml powder; for Reducer rate (-.increment.X%) / sequence of reducing blood sugar: 6 days; for Reducer rate (-.increment.X%): 0.5 mg/ml; for Blood sugar value, Before Use: baseline before 0.5 mg/ml powder
Method: Then, an animal experiment was conducted using a powder and concentrated powder from the methods of steps of FIGS. 2 through 5. The experimental method is as follows: Separate 88 Kumming species mice randomly to reference group, DSP group, DAS group, DAS 1, DAS 2, and DAS 3 groups, Damicron group, and Youjiangtang group, 11 female mice in each group. Use the mice to make diabetes models by injecting Tetraoxymidine, and compare experiment group with known DSP, Damicron, Youjiangtang (as the standard sample). The dose for every group: 0.5 mg/ml powder, every day 0.2 ml for every mouse, and every day 0.2 ml sodium chloride solution for the reference group only. Take blood to measure blood sugar value 6 days after filling the gastric.

[3] = tested on: non-insulin dependent type diabetes; experiment: clinical experiments on humans, non-insulin dependent type diabetes; settings: human, in vivo
Method: as §1

Row | Molecule | Blood sugar value, After Use (diabetes models) [mg %] | Reducer rate (-.increment.X%) (diabetes models) [%] | Blood sugar value, Before Use (diabetes models) [mg %] | sequence of reducing blood sugar (diabetes models) | further results
1 | O=P1(N(CCCl)CCCl)NCCCO1 (stereo not drawn) [cyclophosphamide] |  |  |  |  | Ratio of cell micronucleus ([1]; Positive R.G., 30 mg/kg, 2 times): 45.3%; P vs negative group, micronucleus ([1]; positive reference group): < 0.01; Variant rate (sperm; Positive R.G., 30 mg/kg, 5 days): 61.9%; Variant sperm number (sperm; Positive R.G., 30 mg/kg, 5 days, 10000 sperm observed): 619; P vs negative group, sperm terata (sperm; positive reference group): < 0.01
2 | insulin |  |  |  |  | high or low blood sugar before DAS [2]: became high or low blood sugar occasionally
3 | COc1ccc(Cl)cc1C(=O)NCCc1ccc(S(=O)(=O)NC(=O)NC2CCCCC2)cc1 [YJT] | 162.28 | 45.28 | 296.38 | DAS2 >DAS3 >DAS1>DSP>YJT>DMC | side effect (a sign of low blood sugar) [3]: became dizzy
4 | Cc1ccc(S(=O)(=O)NC(=O)NN2CC3CCCC3C2)cc1 (stereo not drawn) [DMC] | 110.50 | 42.55 | 292.35 | DAS2 >DAS3 >DAS1>DSP>YJT>DMC | 
